Reference: patent US20210204550A1, “STABILIZED FUNGICIDAL COMPOSITION” (priority 2018, published 2021)
Counter-ions that a name gives are not always drawn.

Assays:
Alternaria solani = test: Antifungal activity against Alternaria solani on tomato plants (percent control relative to untreated plants); assay type: in vivo
Botrytis cinerea = test: Antifungal activity against Botrytis cinerea on plants (percent control relative to untreated plants); conditions: Example 3; stored at 54° C. for two weeks or at 40° C. for eight weeks
[1] = Relative fusaricidin A levels in stored formulations by HPLC/MS TOF; conditions: Example 4; 54° C. for two weeks or 40° C. for eight weeks; FIGS. 3 and 4
[2] = across the three assays of Tables 2-4, agent at 2% in 60:40 (BC:water) dilution
[3] = agent at 2% in 70:30 (BC:water) dilution, after storage at 54° C. for two weeks
[4] = Example 3, stored at 54° C. for two weeks or at 40° C. for eight weeks

Compound	effect of stabilizing agent on antifungal activity of Paenibacillus sp. strain NRRL B-50972 BC (Alternaria solani; [2])	effect of stabilizing agent on antifungal activity of Paenibacillus sp. strain NRRL B-50972 BC (Alternaria solani; [3])	effect of stabilizing agent on antifungal activity of Paenibacillus sp. strain NRRL B-50972 BC (Botrytis cinerea)	effect of stabilizing agent on antifungal activity of Paenibacillus sp. strain NRRL B-50972 BC (Alternaria solani; [4])	effect of stabilizing agent on fusaricidin A in Paenibacillus sp. strain NRRL B-50972 BC [1]
glycerol ethyl oxylate	had little effect				
O=P([O-])(O)O.[K+] [potassium phosphate (monobasic)]		did not			
NC(N)=O [urea, carbonic diamide (CO(NH2)2)]	preserved the antifungal activity		robust effect in stabilizing the antifungal activity	robust effect in stabilizing the antifungal activity	
O=P([O-])([O-])O.[K+].[K+] [potassium phosphate (dibasic)]		stabilized the antifungal activity	less than that of urea and betaine hydrochloride	less than that of urea and betaine hydrochloride	had less of an effect in stabilizing fusaricidin A
C[N+](C)(C)CC(=O)O [betaine hydrochloride]			robust effect in stabilizing the antifungal activity	robust effect in stabilizing the antifungal activity	
N=C(N)N [guanidine hydrochloride]	preserved the antifungal activity				
O=C([O-])CC(O)(CC(=O)[O-])C(=O)[O-].[K+].[K+].[K+] [Potassium citrate (tribasic), potassium citrate (tribasic)]		demonstrated a stabilizing effect			
